Measurements from the supplement of paper PMC9103864.

How the values were obtained:
[1] = test system: BMSC (primary human bone marrow mesenchymal stromal cells); assay: drug sensitivity score (DSS); higher = more sensitive
[2] = test system: BMSC (primary human bone marrow mesenchymal stromal cells); assay: absolute EC50 for viability; higher = less sensitive

## Cc1sc2c(c1C)C(c1ccc(Cl)cc1)=N[C@@H](CC(=O)Nc1ccc(OCCOCCOCCOCCNc3cccc4c3C(=O)N(C3CCC(=O)NC3=O)C4=O)cc1)c1nnc(C)n1-2 (stereo partly drawn) [ARV-825]
[1]
  drug sensitivity score: 10.1
[2]
  absolute EC50 for viability: 36 nM

## COc1cc(N2CCC(N3CCN(C)CC3)CC2)ccc1Nc1ncnc(Nc2ccccc2S(=O)(=O)C(C)C)n1 [ASP3026]
[1]
  drug sensitivity score: 6.5
[2]
  absolute EC50 for viability: 2290 nM

## O=C(NC1CCNCC1)c1n[nH]cc1NC(=O)c1c(Cl)cccc1Cl [AT7519]
[1]
  drug sensitivity score: 12.2
[2]
  absolute EC50 for viability: 462 nM

## O=C(Nc1c[nH]nc1-c1nc2ccc(CN3CCOCC3)cc2[nH]1)NC1CC1 [AT9283]
[1]
  drug sensitivity score: 6
[2]
  absolute EC50 for viability: 254 nM

## Cc1cc2c(C(C)C)c(O)c(O)c(C=O)c2c(O)c1-c1c(C)cc2c(C(C)C)c(O)c(O)c(C=O)c2c1O [AT 101]
[1]
  drug sensitivity score: 6.1
[2]
  absolute EC50 for viability: 28100 nM

## CN[C@@H](C)C(=O)N[C@H]1CN(C(=O)CC(C)C)CC[C@H]2CC[C@@H](C(=O)NC(c3ccccc3)c3ccccc3)N2C1=O [AT-406]
[1]
  drug sensitivity score: 0
[2]
  absolute EC50 for viability: > 10000 nM

## CC[C@H](CC#N)OC(=O)N[C@@H](C)c1cccc(NC(=O)Nc2ccc(-c3cnco3)c(OC)c2)c1 [AVN944]
[1]
  drug sensitivity score: 3.9
[2]
  absolute EC50 for viability: > 10000 nM

## COc1cc(N2CCN(C)CC2)ccc1Nc1nccc(-c2cn(C)c3cnccc23)n1 [AZ191]
[1]
  drug sensitivity score: 8.1
[2]
  absolute EC50 for viability: 2710 nM

## COc1cc(OC2CCN(C)CC2)ccc1Nc1ncc2c(n1)n(C1CCCC1)c(=O)n2C [AZ 3146]
[1]
  drug sensitivity score: 2.9
[2]
  absolute EC50 for viability: > 10000 nM

## CN(C)CCCOc1ccc(-c2ccc3ncc4c(c3c2)n(C2CCOCC2)c(=O)n4C)cn1 [AZD0156]
[1]
  drug sensitivity score: 1.9
[2]
  absolute EC50 for viability: > 1000 nM

## N[C@@H]1CCCN(c2c(/C=C3\SC(=O)NC3=O)cccc2-c2ccccc2)C1 [AZD1208]
[1]
  drug sensitivity score: 0.5
[2]
  absolute EC50 for viability: > 10000 nM

## Cc1cc(Nc2nc(N[C@@H](C)c3ncc(F)cn3)ncc2Cl)[nH]n1 [AZD1480]
[1]
  drug sensitivity score: 0.6
[2]
  absolute EC50 for viability: > 1000 nM

## C=CCn1c(=O)c2cnc(Nc3ccc(N4CCN(C)CC4)cc3)nc2n1-c1cccc(C(C)(C)O)n1 [AZD1775]
[1]
  drug sensitivity score: 4.8
[2]
  absolute EC50 for viability: > 10000 nM

## COc1cc2ncnc(Nc3cccc(Cl)c3F)c2cc1OC(=O)N1CCN(C)C[C@H]1C [AZD3759]
[1]
  drug sensitivity score: 0
[2]
  absolute EC50 for viability: > 1000 nM

## Cc1[nH]nc(C(F)(F)F)c1Cc1sc2c(c1C(=O)N1C[C@](C)(O)CO1)c(=O)n(C)c(=O)n2C(C)C [AZD3965]
[1]
  drug sensitivity score: 0
[2]
  absolute EC50 for viability: > 1000 nM

## COc1cc(CCc2cc(NC(=O)c3ccc(N4CC(C)NC(C)C4)cc3)n[nH]2)cc(OC)c1 (stereo not drawn) [AZD4547]
[1]
  drug sensitivity score: 1
[2]
  absolute EC50 for viability: > 1000 nM

## C[C@@H]1COCCN1c1cc(C2([S@](C)(=N)=O)CC2)nc(-c2cc[nH]c3nccc2-3)n1 [AZD6738]
[1]
  drug sensitivity score: 4.6
[2]
  absolute EC50 for viability: > 25000 nM

## CN(C)C(=O)c1ccc(S(=O)(=O)c2ccc(NC(=O)C(C)(O)C(F)(F)F)c(Cl)c2)cc1 (stereo not drawn) [AZD7545]
[1]
  drug sensitivity score: 0
[2]
  absolute EC50 for viability: > 10000 nM

## NC(=O)Nc1cc(-c2cccc(F)c2)sc1C(=O)N[C@H]1CCCNC1 [AZD7762]
[1]
  drug sensitivity score: 7.2
[2]
  absolute EC50 for viability: > 1000 nM

## COc1ccc(-c2ccc3c(N4CCOC[C@@H]4C)nc(N4CCOC[C@@H]4C)nc3n2)cc1CO [AZD8055]
[1]
  drug sensitivity score: 17.8
[2]
  absolute EC50 for viability: 207 nM

## N#Cc1ccc2[nH]c(O)c(-c3ccc(CN4CCOCC4)cn3)c2c1 [AZD-1080]
[1]
  drug sensitivity score: 0
[2]
  absolute EC50 for viability: > 10000 nM

## Cc1ncc(-c2ccnc(Nc3ccc(S(C)(=O)=O)cc3)n2)n1C(C)C [AZD-5438]
[1]
  drug sensitivity score: 1.5
[2]
  absolute EC50 for viability: > 10000 nM

## Cc1cc([C@@H](C)Nc2ccccc2C(=O)O)c2nc(N3CCOCC3)cc(=O)n2c1 [AZD-6482]
[1]
  drug sensitivity score: 2.1
[2]
  absolute EC50 for viability: > 2500 nM

## C[C@@H](Nc1cc(F)cc(F)c1)c1cc(C(=O)N(C)C)cc2c(=O)cc(N3CCOCC3)oc12 [AZD-8186]
[1]
  drug sensitivity score: 3.9
[2]
  absolute EC50 for viability: > 1000 nM

## CCN1CCN(Cc2ccc(Nc3ncc(F)c(-c4cc(F)c5nc(C)n(C(C)C)c5c4)n3)nc2)CC1 [Abemaciclib]
[1]
  drug sensitivity score: 0
[2]
  absolute EC50 for viability: > 2500 nM

## CN(C)Cc1c(C(=O)NCCOc2ccc(C(=O)NO)cc2)oc2ccccc12 [Abexinostat]
[1]
  drug sensitivity score: 10.1
[2]
  absolute EC50 for viability: 1280 nM

## C[C@]12CC[C@H](O)CC1=CC[C@@H]1[C@@H]2CC[C@]2(C)C(c3cccnc3)=CC[C@@H]12 [Abiraterone]
[1]
  drug sensitivity score: 0
[2]
  absolute EC50 for viability: > 5000 nM

## CC#CC(=O)N1CCC[C@H]1c1nc(-c2ccc(C(=O)Nc3ccccn3)cc2)c2c(N)nccn12 [Acalabrutinib]
[1]
  drug sensitivity score: 0
[2]
  absolute EC50 for viability: > 1000 nM

## COc1cc(C)c(/C=C/C(C)=C/C=C/C(C)=C/C(=O)O)c(C)c1C [Acitretin]
[1]
  drug sensitivity score: 0
[2]
  absolute EC50 for viability: > 10000 nM

## CN(C)C/C=C/C(=O)Nc1cc2c(Nc3ccc(F)c(Cl)c3)ncnc2cc1O[C@H]1CCOC1 [Afatinib]
[1]
  drug sensitivity score: 2.9
[2]
  absolute EC50 for viability: > 1000 nM

## COc1cccc2c1C(=O)c1c(O)c3c(c(O)c1C2=O)C[C@@](O)(/C(CO)=N/NC(=O)CCCCCN1C(=O)C=CC1=O)C[C@@H]3O[C@H]1C[C@H](N)[C@H](O)[C@H](C)O1 [Aldoxorubicin]
[1]
  drug sensitivity score: 7.3
[2]
  absolute EC50 for viability: 944 nM

## CCc1cc2c(cc1N1CCC(N3CCOCC3)CC1)C(C)(C)c1[nH]c3cc(C#N)ccc3c1C2=O [Alectinib]
[1]
  drug sensitivity score: 0
[2]
  absolute EC50 for viability: > 1000 nM

## COc1cc(Nc2ncc3c(n2)-c2ccc(Cl)cc2C(c2c(F)cccc2OC)=NC3)ccc1C(=O)O [Alisertib]
[1]
  drug sensitivity score: 0
[2]
  absolute EC50 for viability: > 10000 nM

## Oc1ncnc2[nH]ncc12 [Allopurinol]
[1]
  drug sensitivity score: 0
[2]
  absolute EC50 for viability: > 10000 nM

## Cc1nc(NC(=O)N2CCC[C@H]2C(N)=O)sc1-c1ccnc(C(C)(C)C(F)(F)F)c1 [Alpelisib]
[1]
  drug sensitivity score: 3.4
[2]
  absolute EC50 for viability: > 2500 nM

## O=C(Nc1cc(Oc2cc(F)c(NC(=O)C3(C(=O)Nc4ccc(F)cc4)CC3)cc2F)ccn1)C1CC1 [Altiratinib]
[1]
  drug sensitivity score: 2.9
[2]
  absolute EC50 for viability: > 10000 nM

## CN1CC[C@H](c2c(O)cc(O)c3c(=O)cc(-c4ccccc4Cl)oc23)[C@H](O)C1 [Alvocidib]
[1]
  drug sensitivity score: 10.8
[2]
  absolute EC50 for viability: 739 nM

## CCN(CC)CCNC(=O)c1c(C)[nH]c(/C=C2\C(=O)Nc3ccc(-c4csc(-c5ccccc5)n4)cc32)c1C [Amcasertib]
[1]
  drug sensitivity score: 5.9
[2]
  absolute EC50 for viability: 2780 nM

## CCC1(c2ccc(N)cc2)CCC(=O)NC1=O (stereo not drawn) [Aminoglutethimide]
[1]
  drug sensitivity score: 0
[2]
  absolute EC50 for viability: > 10000 nM

## COc1cc(NS(C)(=O)=O)ccc1Nc1c2ccccc2nc2ccccc12 [Amsacrine]
[1]
  drug sensitivity score: 2.8
[2]
  absolute EC50 for viability: > 10000 nM

## S=C(NCc1ccc2c(c1)OCO2)N1CCN(c2ncnc3c2oc2ccccc23)CC1 [Amuvatinib]
[1]
  drug sensitivity score: 0
[2]
  absolute EC50 for viability: > 10000 nM

## O=C1CN2Cc3c(ccc(Cl)c3Cl)N=C2N1 [Anagrelide]
[1]
  drug sensitivity score: 0
[2]
  absolute EC50 for viability: > 10000 nM

## CC(C)(C#N)c1cc(Cn2cncn2)cc(C(C)(C)C#N)c1 [Anastrozole]
[1]
  drug sensitivity score: 0
[2]
  absolute EC50 for viability: > 10000 nM

## CNC(=O)c1ccc(N2C(=S)N(c3cnc(C#N)c(C(F)(F)F)c3)C(=O)C23CCC3)cc1F [Apalutamide]
[1]
  drug sensitivity score: 0
[2]
  absolute EC50 for viability: > 10000 nM

## N#CC1(c2ccc(NC(=O)c3cccnc3NCc3ccncc3)cc2)CCCC1 [Apatinib]
[1]
  drug sensitivity score: 0.1
[2]
  absolute EC50 for viability: > 10000 nM

## O=C(Nc1ccc(OC(F)(F)Cl)cc1)c1cnc(N2CC[C@@H](O)C2)c(-c2cc[nH]n2)c1 [Asciminib]
[1]
  drug sensitivity score: 0
[2]
  absolute EC50 for viability: > 1000 nM

## CC(C)c1c(C(=O)Nc2ccccc2)c(-c2ccccc2)c(-c2ccc(F)cc2)n1CC[C@@H](O)C[C@@H](O)CC(=O)O [Atorvastatin]
[1]
  drug sensitivity score: 3.1
[2]
  absolute EC50 for viability: 8180 nM

## CC(=O)OC[C@H]1O[C@@H]([S-])[C@H](OC(C)=O)[C@@H](OC(C)=O)[C@@H]1OC(C)=O.CCP(CC)CC.[Au+] [Auranofin]
[1]
  drug sensitivity score: 3.3
[2]
  absolute EC50 for viability: 1390 nM

## CNC(=O)c1ccccc1Sc1ccc2c(/C=C/c3ccccn3)n[nH]c2c1 [Axitinib]
[1]
  drug sensitivity score: 7.9
[2]
  absolute EC50 for viability: > 10000 nM

## Nc1ncn([C@@H]2O[C@H](CO)[C@@H](O)[C@H]2O)c(=O)n1 [Azacitidine]
[1]
  drug sensitivity score: 2.3
[2]
  absolute EC50 for viability: > 10000 nM

## Cc1cc(-c2nc(-c3ccc(OC(F)(F)F)cc3)no2)nn1Cc1ccnc(N2CCN(C3CC3)CC2)c1 [BAY 87-2243]
[1]
  drug sensitivity score: 0
[2]
  absolute EC50 for viability: > 1000 nM

## c1ccc2n[se]nc2c1 [BCI]
[1]
  drug sensitivity score: 14.9
[2]
  absolute EC50 for viability: 2550 nM

## Nc1nc(Nc2ccc3c(c2)CC[C@@H](N2CCCC2)CC3)nn1-c1cc2c(nn1)-c1ccccc1CCC2 [BGB324]
[1]
  drug sensitivity score: 6.7
[2]
  absolute EC50 for viability: 2490 nM

## O=C1CCc2c(Oc3ccc4c(c3)[C@@H]3[C@H](O4)[C@H]3c3nc4cc(C(F)(F)F)ccc4[nH]3)ccnc2N1 [BGB-283]
[1]
  drug sensitivity score: 4.2
[2]
  absolute EC50 for viability: > 10000 nM

## CC[C@@H]1C(=O)N(C)c2cnc(Nc3ccc(C(=O)NC4CCN(C)CC4)cc3OC)nc2N1C1CCCC1 [BI 2536]
[1]
  drug sensitivity score: 1.9
[2]
  absolute EC50 for viability: > 1000 nM

## COc1c(C)cnc(Cn2cnc3c(Cl)nc(N)nc32)c1C [BIIB021]
[1]
  drug sensitivity score: 12
[2]
  absolute EC50 for viability: 449 nM

## CC1(C)C(C(=O)Nc2ccc(S(=O)(=O)c3ccc(NC(=O)C4C(C)(C)C4(C)C)cc3)cc2)C1(C)C [BRD7116]
[1]
  drug sensitivity score: 0
[2]
  absolute EC50 for viability: > 10000 nM

## O=C(Nc1cccc(Nc2ncc(Br)c(NCCc3cnc[nH]3)n2)c1)N1CCCC1 [BX-912]
[1]
  drug sensitivity score: 6.7
[2]
  absolute EC50 for viability: 2170 nM

## Cc1ccc(NC(=O)c2ccc(CN3CC[C@H](N(C)C)C3)c(C(F)(F)F)c2)cc1Nc1nccc(-c2cncnc2)n1 [Bafetinib]
[1]
  drug sensitivity score: 1.9
[2]
  absolute EC50 for viability: > 1000 nM
